Holding throughout (assay type): in vivo
Experiment [1] has as its system retina of the constitutively active Akt-Mer Tg mouse. Kind of experiment: Retina cup observation by optical microscope after persistent activation of Akt (Example 3). Particulars: 4-OHT i.p. 100 μg/day×3 days, 4th to 6th day after birth; observed 7th day; vs mouse without 4-OHT. On the procedure:
In this example, an influence of the persistent activation of Akt on the retina in the constitutively active Akt-Mer Tg mouse produced in Example 1 was investigated. Here, the influence on the retina was confirmed by observing the retina of the constitutively active Akt-Mer Tg mouse in which Akt had been persistently activated using an optical microscope.
To the constitutively active Akt-Mer Tg mouse produced in Example 1, 10 μg/μl 4-OHT was intraperitoneally administered at a dose of 10 μl per day from the fourth day to the sixth day after birth (total dose was 100 μg/day×3 days). On the seventh day after birth, perfusion fixation from the heart was performed using 4% paraformaldehyde (abbreviated as “PFA” hereinafter). Then, a retinal cup was produced from the removed eyeball, and an optical micrograph showing the retina was obtained using MZ16F (Leica). A mouse to which 4-OHT was not administered was used as a control and subjected to the same treatment, and then an image was obtained.

Experiment [2] shares this test system. Kind of experiment: Whole-mount immunostaining (anti PECAM-1) of the retina, retinal vascular morphology (Examples 4, 5). On the procedure:
(§1) To the constitutively active Akt-Mer Tg mouse produced in Example 1, 10 μg/μl 4-OHT was intraperitoneally administered at a dose of 10 μl per day from the fourth day to the sixth day after birth (total dose was 100 μg/day×3 days). On the seventh day after birth, perfusion fixation from the heart was performed using 4% PFA, and then a retinal cup was produced from the removed eyeball. Fluorescent immunostaining using an anti PECAM-1 (platelet endothelial cell adhesion molecule-1: CD31) antibody was performed to stain vascular endothelial cells. Subsequently, a flat-mount image of the retina was obtained using AxioObserver (Zeiss). A mouse to which 4-OHT was not administered was used as a control and subjected to the same treatment, and then an image was obtained.
For the purpose of further investigating the retinal vascular morphology in detail, the vascular lengths and vascular diameters were measured. Specifically, regarding the vascular lengths, a distance from the peripheral edge of the optic papilla to the leading end of the extending blood vessel along a vein was measured using Photoshop CS5 software. The vascular lengths at four positions in one retina were measured and quantified. Regarding the arterial diameters and venous diameters, the thickness of arteries and veins located on the circumference of a circle with a radius of 1500 μm about the optical papilla was measured also using Photoshop CS5 software (**<0.01).
as §1, with “1, 1” for “1, 10”, “was 10” for “was 100”, “days). This dose was one tenth of the dose in the previous examples.” for “days).”, “was produced.” for “was produced from the removed eyeball.”, “PECAM-1 (CD31)” for “PECAM-1 (platelet endothelial cell adhesion molecule-1: CD31)”, “was performed, and” for “was performed to stain vascular endothelial cells. Subsequently,”
For the purpose of further investigating the retinal vascular morphology in detail, the number of microaneurysms was measured. Specifically, regarding the measurement of the number of microaneurysms, the number of microaneurysms in one retina was manually measured using the flat-mount image of the retina.

Experiment [3] shares this test system. Kind of experiment: Retinal vascular permeability, Evans blue leakage (Example 6). The conditions noted are these: 4-OHT i.p. 10 μg/μl, 10 μl per day, 4th to 6th day after birth. On the procedure: To the constitutively active Akt-Mer Tg mouse produced in Example 1, 10 μg/μl 4-OHT was intraperitoneally administered at a dose of 10 μl per day from the fourth day to the sixth day after birth (total dose was […]). On the seventh day after birth, 20 μl of Evans blue was intraperitoneally administered, and 1 hour after this, perfusion fixation from the heart was performed using 4% PFA, and then, the eyeball was removed. An image of the removed eyeball was obtained using an MZ16F stereoscopic microscope (Leica). A mouse to which 4-OHT was not administered was used as a control and subjected to the same treatment, and then an image was obtained.
Furthermore, for the purpose of evaluating the vascular permeability in a quantitative manner, the fluorescence intensity of Evans blue leaking from the retinal blood vessels was measured using an LSM710 confocal microscope (Zeiss) (***<0.001).

Experiment [4] has the same test system. Kind of experiment: Retinal cryosection with Hoechst staining, retinal surface layer (Example 7). Particulars: 4-OHT i.p. 100 μg/day×3 days; 7th day after birth; vs control. How it is done:
To the constitutively active Akt-Mer Tg mouse produced in Example 1, 10 μg/μl 4-OHT was intraperitoneally administered at a dose of 10 μl per day from the fourth day to the sixth day after birth (total dose was 100 μg/day×3 days). On the seventh day after birth, perfusion fixation from the heart was performed using 4% PFA. The eyeball was removed, and then a retinal cryosection was produced. The nuclei were visualized through Hoechst staining, and an image was obtained using a microscope (Zeiss). A mouse to which 4-OHT was not administered was used as a control and subjected to the same treatment, and then an image was obtained.

Where [5] appears, read: 4-OHT i.p. 100 μg/day×3 days, observed 7th day after birth, vs control.

Results on one substance are retold here after patent US10869465B2, “Transgenic mouse model of retinal vascular disease, method of making, and method of using” (OSAKA UNIVERSITY, priority 2017, dated 2020).

With 4-hydroxytamoxifen [4-OHT], in experiment [1], the retinal hemorrhage entry was “punctuate retinal hemorrhage was observed”. Also, the “number of microaneurysms in one retina (average)” value in experiment [2] (4-OHT i.p. 10 μg/day×3 days, 7th day after birth, hardly observed in control) amounted to 90. For the same substance, in experiment [2] (4-OHT i.p. 100 μg/day×3 days, 4th to 6th day after birth, observed 7th day, vs control), the vascular network formation result was “the formation of a dense vascular network was observed”. Moreover, the formation of microaneurysms result in experiment [2] (4-OHT i.p. 100 μg/day×3 days, observed 7th day after birth) is recorded as “the formation of microaneurysms, which have a varicose structure, was induced”; in experiment [2] (low-concentration 4-OHT i.p. 10 μg/day×3 days, observed 7th day after birth), “the formation of microaneurysms was also induced”. Besides, the “extension of blood vessels” value in experiment [2] (setting [5]) was “the extension of blood vessels was delayed compared with the control”. In addition, the “vascular diameters (arteries, veins, capillaries)” value in experiment [2] (setting [5]) was “the overall retinal blood vessels significantly expanded”. For the same substance, the “vascular permeability (leakage of Evans blue from blood vessels)” value in experiment [3] (Evans blue i.p. on 7th day, 1 hour) is “the vascular permeability was increased”. For the same substance, the “fluorescence intensity of Evans blue leaking from the retinal blood vessels” value in experiment [3] (confocal microscope, ***<0.001 vs control) is recorded as “significantly larger than that in the control”. Besides, in experiment [4], the “swelling of overall retina, particularly the surface layer” value is listed as “significantly swollen”.
